Data: PMC6476888, “Design and synthesis of anticancer 1-hydroxynaphthalene-2-carboxanilides with a p53 independent mechanism of action” (Scientific Reports, 2019)
Like-named read-outs stand apart in the source and are kept apart here.

Experiments:
[1] = system: HCT116^+/+; experiment: Antiproliferative assay (MTS, 72 h) on HCT116 wild type; format: cell-based, human; details: MTS, 72 h incubation, read-out: Activity IC50 HCT116^+/+
Method: (§1) All of the synthesized compounds were tested for their antiproliferative activity against human colon cancer (Table 1). We used both the wild-type and p53-negative cell lines (HCT116^+/+ and HCT116^−/−, respectively). Mutations in the TP53 gene are present in more than 50% of all cancers and often specifically correspond to a difficult therapy, resistance or a bad prognosis[60]–[63]. The active compounds were additionally tested for their cytotoxicity against normal human fibroblasts. We used 5-fluorouracil (5-FLU), doxorubicin (DOX) and CP-31398 as the standards. 5-FLU is one of the first antimetabolites that was dedicated for cancer treatment and is still used for a wide range of cancers including colon carcinoma. Doxorubicin is a DNA topoisomerase II poison with a high intercalating potency, which is able to induce apoptosis through the p53 pathway. Although DOX has been described as being ineffective in some p53 mutants, its level of activity against the p53 null lines is similar. CP-31398, on the other hand, is an experimental drug in the clinical phase and its mechanism of action is through the reactivation some of p53 mutants. Its activity against the p53 null cell lines is greatly diminished and is actually lower than its cytotoxicity.
(§2) The human colon cancer cell line HCT116 wild type was obtained from ATCC and the normal human fibroblast cell lines NHDF were obtained from PromoCell. The human colon cancer cell line HCT116 with a p53 deletion (p53^−/−) was kindly provided by Prof. M. Rusin from the Maria Sklodowska-Curie Memorial Cancer Centre and Institute of Oncology in Gliwice, Poland[89]. The cells were grown as monolayer cultures in Dulbecco’s modified Eagle’s medium with the antibiotic gentamicin (200 μL/100 mL medium) in 75 cm^2 flasks (Nunc). The DMEM for the HCT116 were supplemented with 12% heat-inactivated fetal bovine serum (Sigma-Aldrich, St. Louis, MO, USA) and for NHDF with 15% non-inactivated fetal bovine serum (Sigma Aldrich, St. Louis, MO, USA). The cells were cultured under standard conditions at 37 °C in a humidified atmosphere at 5% CO2.
(§3) The cells were seeded in 96-well plates (Nunc) at a density of 5,000 cells/well (HCT116) and 4,000 cells/well (NHDF) and incubated at 37 °C for 24 h. The assay was performed following a 72 h incubation with varying concentrations of the compounds that were being tested. Then, 20 µL of CellTiter 96® AQueous One Solution-MTS (Promega) was added to each well (with 100 µL DMEM without phenol red) and incubated for 1 h at 37 °C. The optical densities of the samples were analyzed at 490 nm using a Synergy 4 multi-plate reader (BioTek, Winooski, VT, USA). The results are expressed as the percentage of the control and were calculated as the inhibitory concentration (IC50) values (using a GraphPad Prism 7). The IC50 parameter was defined as the compound concentration that was necessary to reduce the proliferation of cells to 50% of the untreated control. Each individual compound was tested in triplicate in a single experiment with each experiment being repeated three or four times.

[2] = system: CT-DNA; experiment: Spectrophotometric DNA intercalation assay; format: binding, calf; details: for Changes in absorbance: bound to CT-DNA (18 µM), 1.5 h 37 °C, Tris-HCl pH 7.9; for % hypochromism / Δε: bound to CT-DNA; for red shift: wavelengths of maximum absorption, individual vs DNA-bound compound
Text: The fused aromatic rings of the naphthalene moiety and halogen substituents in aniline may guarantee good intercalating properties[71],[72]. On the other hand, the intercalation of DNA may explain the high activity against both the wild-type and p53 mutants as was reported for a series of styrylquinolines. Binding to DNA causes the bases to mismatch or cleave, which results in the arrest of the cell cycle and apoptosis. The effectiveness of the p53 system is one of the most important factors in the response to therapy. We tested the intercalating properties of the selected compounds in a spectrophotometric assay on calf-thymus DNA. The absorption spectra of the tested compounds in the absence and presence of CT-DNA are presented in Figure S1 Supplementary Information and the spectral properties with doxorubicine and CP-31398 are summarized in Table 2.
For the DNA binding studies, Calf-thymus DNA (CT-DNA) was purchased from Sigma- Aldrich. The lyophilized CT-DNA was dissolved in 10 mM Tris-HCl, pH 7.9, mixed gently and left overnight at 4 °C. The purity of the CT-DNA solution was determined by measuring the ratio of UV absorbance at 260 and 280 nm. […] Then, the concentration of CT-DNA was determined from the absorbance at 260 nm using an extinction coefficient of 6600 M^−1cm^−1. The tested compounds including DOX and CP-31398 were dissolved to a concentration of 8.35 mM in DMSO, which was then used as the stock solution for preparing the various concentrations (25, 12.5, 6 and 3 µM) in 1 mL in 10 mM of Tris-HCl (pH 7.9). Afterwards, 18 µM CT-DNA was added to the prepared solutions, which were incubated for 1.5 h at 37 °C with occasional vortexing. The absorption spectra were measured using a Hitachi U-2900 spectrophotometer in the range of 200–500 nm. All absorption spectra were imported into OriginPro 8.0 and compared.

[3] = system: NHDF; experiment: Cytotoxicity (MTS, 72 h) against normal human fibroblasts; format: cell-based; details: MTS, 72 h incubation
Method: as §1, §2, §3

[4] = system: HCT116^−/−; experiment: Antiproliferative assay (MTS, 72 h) on HCT116 with p53 deletion; format: cell-based, human; details: MTS, 72 h incubation
Method: as §1, §2, §3

[5] = system: p53/p21 system in the HCT116 cells; experiment: Western blot of p53/p21 activation; format: cell-based, human; details: wild-type HCT116, 12 and 24 h
Method: Further exploration of the cell death model was performed by a western blot analysis of protein activation in response to incubation with the tested compound (Figs 6, 7). […] The proapoptotic activation of the p53/p21 system was noticeable after the first 12 hours and then became stronger after 24 h. This effect was not observed in the case of the p53 null cells, which were unable to synthesize this protein.
The HCT116 cells were seeded in 3-cm Petri dishes (Nunc) at a density of 0.5·10^6 cells/well and incubated overnight. […] The cells were harvested by trypsinization and washed with cold PBS. Next, the cells were centrifuged and suspended in an RIPA buffer (Thermo-Fisher Scientific) containing Halt Protease Inhibitor Cocktail (Thermo-Fisher Scientific), Halt Phosphatase Inhibitor Cocktail (Thermo-Fisher Scientific) along with 0.5 M EDTA and lysed for 20 min on ice. Then, the lysates were sonicated, centrifuged at 10,000 rpm for 10 min at 4 °C and the supernatants were collected for further analysis. The protein concentration was determined using a Micro BCA™ Protein Assay Kit (Thermo-Fisher Scientific, Waltham, MA, USA c) according to the manufacturer’s instructions. Equal amounts of the proteins (20 μg) were electrophoresed on SDS-Page gels and transferred onto nitrocellulose membranes. The membranes were blocked in 5% non-fat milk prepared in PBS containing 0.1% Tween-20 (TPBS) for 1 h. After blocking, the membranes were incubated with specific primary antibodies: p21^Waf1/Cip1, p53, cytochrome c, caspase-8, caspase-9, AIF, PARP, GAPDH and β-Actin overnight at 4 °C, and then washed and incubated with horseradish peroxidase (HRP)-conjugated secondary antibodies for 1 h at room temperature. All of the antibodies were purchased from CellSignaling (Danvers, MA, USA) and were diluted 1:1000 in 5% milk in TPBS. Finally, the membranes were washed and incubated with a SuperSignal™ West Pico Chemiluminescent Substrate (Thermo-Fisher Scientific). The chemiluminescence signals were captured using a ChemiDoc™ XRS+ System (Bio-Rad Laboratories, Hercules, CA, USA). The experiments were performed at least three times. Densitometric analysis was performed using ImageJ 1.41 software (Wayne Rasband, National Institutes of Health, USA).

[6] = for CP-31398 first value (312 nm band)

In the case of `COc1ccc(/C=C/c2nc(NCCCN(C)C)c3ccccc3n2)cc1` [CP-31398, reference compound], the IC50 [1] is reported as 18.6 ± 0.92 µM, the Changes in absorbance [2] is reported as “hypochromism” and the “% hypochromism” value [2, 6] is reported as 41.4%. The Δε [2, 6] was 1515.6 M⁻¹ cm⁻¹, the “% hypochromism” value ([2]; second value (350 nm band)) was 37.4% and the Δε ([2]; second value (350 nm band)) was 1693.3 M⁻¹ cm⁻¹. It also gave a red shift [2] of 0 nm, an IC50 [3] of 12.3 ± 0.54 µM and an IC50 [4] of 26.3 ± 1.41 µM.

`COc1cccc2c1C(=O)c1c(O)c3c(c(O)c1C2=O)C[C@@](O)(C(=O)CO)C[C@@H]3O[C@H]1C[C@H](N)[C@H](O)[C@H](C)O1` [DOX, doxorubicin, reference compound] was tested, and the p21 protein amount [5] was “dramatic increase”, the “p53 protein amount / activation” value [5] was “dramatic increase” and the IC50 ([1]; Homo sapiens, HCT-116) was 0.34 ± 0.04 µM. For the same molecule, the Changes in absorbance [2] was “hypochromism”, the “% hypochromism” value [2, 6] was 34.2% and the Δε [2, 6] was 3235.6 M⁻¹ cm⁻¹. For the same molecule, the red shift [2] was 10 nm, the IC50 ([3]; Homo sapiens, NHDF) was 3.38 ± 1.29 µM and the IC50 ([4]; Homo sapiens, HCT-116) was 0.38 ± 0.03 µM.
